ChEMBL document CHEMBL5120927, “LEGO-Lipophosphonoxins: A Novel Approach in Designing Membrane Targeting Antimicrobials” (J Med Chem, 2022)
Activity calls are given as the source filed them.

Key:
Pseudomonas aeruginosa [1] = experiment: Antibacterial activity against Pseudomonas aeruginosa assessed as reduction in microbial growth measured after 20 cycles by microdilution assay; type: functional; settings: Pseudomonas aeruginosa; time 24 hrs
Pseudomonas aeruginosa [2] = experiment: Antibacterial activity against Pseudomonas aeruginosa ATCC 27853 = CCM 3955 assessed as inhibition of bacterial growth incubated for 24 hrs by microdilution assay; type: functional
Staphylococcus aureus [3] = experiment: Antibacterial activity against Staphylococcus aureus ATCC 29213 = CCM 4223 assessed as inhibition of bacterial growth incubated for 24 hrs by microdilution assay; type: functional
Lipid bilayer [4] = experiment: Induction of membrane disruption of bacterial inner membrane mimic DOPE/DOPG (2:1) large unilamellar vesicles assessed as carboxyfluorescein leakage at 2.5 mg/L measured after 90 mins by spectrofluorometer analysis
Staphylococcus aureus [5] = experiment: Antibacterial activity against methicillin resistant Staphylococcus aureus 4591/A assessed as reduction in microbial growth incubated for 24 hrs by microdilution assay; type: functional
[6] = Hemolytic activity in human RBC assessed as haemoglobin release measured after 3 hr; type: toxicity, cell-based, Erythrocyte; settings: red blood cells (erythrocytes)
Cell membrane [7] = experiment: Induction of membrane permeabilization in Escherichia coli CCM 3954 assessed as propidium iodide influx measured after 80 mins by spectrofluorometer method; settings: dose 2.5-5 mg/L, DDE = dose-dependent effect
[8] = Gradient chromatographic hydrophobicity index of the compound at pH 3.7 by HPLC analysis; type: ADME
Enterococcus faecium = experiment: Antibacterial activity against vancomycin resistant Enterococcus faecium 419/ANA assessed as reduction in microbial growth incubated for 24 hrs by microdilution assay; type: functional
Enterococcus faecalis = experiment: Antibacterial activity against Enterococcus faecalis ATCC 29212 = CCM 4224 assessed as inhibition of bacterial growth incubated for 24 hrs by microdilution assay; type: functional
[9] = system: Staphylococcus epidermidis; experiment: Antibacterial activity against Staphylococcus epidermidis CCM 7221 assessed as inhibition of bacterial growth incubated for 24 hrs by microdilution assay; type: functional
Staphylococcus aureus [10] = experiment: Antibacterial activity against Staphylococcus aureus ATCC 29213 = CCM 4223 assessed as inhibition of bacterial growth incubated for 24 hrs in presence of BSA by microdilution assay; type: functional
Escherichia coli [11] = experiment: Antibacterial activity against Escherichia coli ATCC 25922 = CCM 3954 assessed as inhibition of bacterial growth incubated for 24 hrs in presence of BSA by microdilution assay; type: functional
Lipid bilayer [12] = experiment: Induction of membrane disruption of […] membrane mimic DOPC/DOPE (2:1) large unilamellar vesicles assessed as carboxyfluorescein leakage at 2.5 mg/L measured after 90 mins by spectrofluorometer analysis
Cell membrane [13] = experiment: Induction of plasma membrane depolarization in Escherichia coli CCM 3954 assessed as increase in fluorescence intensity at 2.5 mg/L measured after 80 seconds by DiSC3-5 dye based spectrofluorometer method; type: cell membranes; settings: time 80.0 sec
Pseudomonas aeruginosa [14] = experiment: Antibacterial activity against multidrug-resistant Pseudomonas aeruginosa assessed as reduction in microbial growth incubated for 24 hrs by microdilution assay; type: functional
Escherichia coli [15] = experiment: Antibacterial activity against multidrug-resistant Escherichia coli CE5556 expressing CTX-M-15 assessed as reduction in microbial growth incubated for 24 hrs by microdilution assay; type: functional
Escherichia coli [16] = experiment: Antibacterial activity against Escherichia coli ATCC 25922 = CCM 3954 assessed as inhibition of bacterial growth incubated for 24 hrs by microdilution assay; type: functional
Staphylococcus aureus [17] = experiment: Antibacterial activity against […] Staphylococcus aureus 4461/A assessed as reduction in microbial growth incubated for 24 hrs by microdilution assay; type: functional
Staphylococcus aureus [18] = experiment: Antibacterial activity against wild type Staphylococcus aureus 4504/A assessed as reduction in microbial growth incubated for 24 hrs by microdilution assay; type: functional
Staphylococcus aureus [19] = experiment: Antibacterial activity against wild type Staphylococcus aureus 4788/B assessed as reduction in microbial growth incubated for 24 hrs by microdilution assay; type: functional
Staphylococcus aureus [20] = experiment: Antibacterial activity against wild type Staphylococcus aureus 4738/B assessed as reduction in microbial growth incubated for 24 hrs by microdilution assay; type: functional
Staphylococcus aureus [21] = experiment: Antibacterial activity against wild type Staphylococcus aureus 4557/A assessed as reduction in microbial growth incubated for 24 hrs by microdilution assay; type: functional
Staphylococcus aureus [22] = experiment: Antibacterial activity against wild type Staphylococcus aureus 4717/B assessed as reduction in microbial growth incubated for 24 hrs by microdilution assay; type: functional
Staphylococcus aureus [23] = experiment: microbe, parasite or virus in culture; settings: 4862/C, 24 h
Description: Antibacterial activity against wild type Staphylococcus aureus 4862/C assessed as reduction in microbial growth incubated for 24 hrs by microdilution assay

Staphylococcus aureus [24] = experiment: Antibacterial activity against […] Staphylococcus aureus 4460/A assessed as reduction in microbial growth incubated for 24 hrs by microdilution assay; type: functional
Staphylococcus aureus [25] = experiment: Antibacterial activity against wild type methicillin resistant Staphylococcus aureus 4968/C assessed as reduction in microbial growth incubated for 24 hrs by microdilution assay; type: functional
Staphylococcus aureus [26] = experiment: Antibacterial activity against wild type Staphylococcus aureus 78/CF assessed as reduction in microbial growth incubated for 24 hrs by microdilution assay; type: functional
Staphylococcus aureus [27] = experiment: Antibacterial activity against wild type Staphylococcus aureus 4502/A assessed as reduction in microbial growth incubated for 24 hrs by microdilution assay; type: functional
Staphylococcus aureus [28] = experiment: Antibacterial activity against wild type Staphylococcus aureus 4679/B assessed as reduction in microbial growth incubated for 24 hrs by microdilution assay; type: functional
Staphylococcus aureus [29] = experiment: Antibacterial activity against antibiotic resistant Staphylococcus aureus 77/CF assessed as reduction in microbial growth incubated for 24 hrs by microdilution assay; type: functional
Staphylococcus aureus [30] = experiment: Antibacterial activity against wild type methicillin resistant Staphylococcus aureus 5017/C assessed as reduction in microbial growth incubated for 24 hrs by microdilution assay; type: functional
Staphylococcus aureus [31] = experiment: Antibacterial activity against wild type Staphylococcus aureus 4883/C assessed as reduction in microbial growth incubated for 24 hrs by microdilution assay; type: functional
Staphylococcus aureus [32] = experiment: Antibacterial activity against wild type methicillin resistant Staphylococcus aureus 4561/A assessed as reduction in microbial growth incubated for 24 hrs by microdilution assay; type: functional
Staphylococcus aureus [33] = experiment: Antibacterial activity against wild type Staphylococcus aureus 5079/C assessed as reduction in microbial growth incubated for 24 hrs by microdilution assay; type: functional
Staphylococcus aureus [34] = experiment: Antibacterial activity against wild type Staphylococcus aureus 4904/C assessed as reduction in microbial growth incubated for 24 hrs by microdilution assay; type: functional
Staphylococcus aureus [35] = experiment: Antibacterial activity against wild type Staphylococcus aureus 4482/A assessed as reduction in microbial growth incubated for 24 hrs by microdilution assay; type: functional
Staphylococcus aureus [36] = experiment: Antibacterial activity against wild type Staphylococcus aureus 4740/B assessed as reduction in microbial growth incubated for 24 hrs by microdilution assay; type: functional
Staphylococcus aureus [37] = experiment: Antibacterial activity against wild type Staphylococcus aureus 4515/A assessed as reduction in microbial growth incubated for 24 hrs by microdilution assay; type: functional
Staphylococcus aureus [38] = experiment: Antibacterial activity against […] Staphylococcus aureus 4463/A assessed as reduction in microbial growth incubated for 24 hrs by microdilution assay; type: functional
Staphylococcus aureus [39] = experiment: Antibacterial activity against wild type Staphylococcus aureus 4566/A assessed as reduction in microbial growth incubated for 24 hrs by microdilution assay; type: functional
Staphylococcus aureus [40] = experiment: microbe, parasite or virus in culture; settings: 4880/C, 24 h
Description: Antibacterial activity against wild type Staphylococcus aureus 4880/C assessed as reduction in microbial growth incubated for 24 hrs by microdilution assay

CC(C)(O/N=C(\C(=O)N[C@@H]1C(=O)N2C(C(=O)[O-])=C(C[n+]3ccccc3)CS[C@H]12)c1csc(N)n1)C(=O)O [CEFTAZIDIME]
128 µg/mL: MIC (Pseudomonas aeruginosa [1])

CCCCCCCCOP(=O)(CCN(CCCN)CCCN)OCCCCCCCCCCOP(=O)(CCN(CCCN)CCCN)OCCCCCCCC.Cl.Cl.Cl.Cl.Cl.Cl (configuration not stated)
3 µg/mL: MIC (Staphylococcus aureus [5])
1 µg/mL: MIC (Pseudomonas aeruginosa [2]) | MIC (Enterococcus faecium) | MIC (Pseudomonas aeruginosa [14]) | MIC (Escherichia coli [15])
0.5 µg/mL: MIC (Staphylococcus aureus [3]) | MIC (Enterococcus faecalis) | MIC [9] | MIC (Escherichia coli [11]) | MIC (Escherichia coli [16])
6.4 µg/mL: HC50 at 3 h [6]
0.125 µg/mL: MIC (Staphylococcus aureus [10])
active: Activity (Lipid bilayer [4]) | Activity (Cell membrane [7]) Dde | Activity (Lipid bilayer [12]) | Activity (Cell membrane [13])
40.6: CHI [8]

CCC[C@@H]1C[C@@H](C(=O)N[C@@H]([C@H]2O[C@H](SC)[C@H](O)[C@@H](O)[C@H]2O)[C@H](C)Cl)N(C)C1 [CLINDAMYCIN]
0.25 µg/mL: MIC (Staphylococcus aureus [40])
0.063 µg/mL: MIC (Staphylococcus aureus [19]) | MIC (Staphylococcus aureus [26]) | MIC (Staphylococcus aureus [27]) | MIC (Staphylococcus aureus [33])
> 4 µg/mL: MIC (Staphylococcus aureus [32])
> 8 µg/mL: MIC (Staphylococcus aureus [25]) | MIC (Staphylococcus aureus [29]) | MIC (Staphylococcus aureus [30])
0.125 µg/mL: MIC (Staphylococcus aureus [17]) | MIC (Staphylococcus aureus [18]) | MIC (Staphylococcus aureus [20]) | MIC (Staphylococcus aureus [21]) | MIC (Staphylococcus aureus [22]) | MIC (Staphylococcus aureus [23]) | MIC (Staphylococcus aureus [24]) | MIC (Staphylococcus aureus [28]) | MIC (Staphylococcus aureus [31]) | MIC (Staphylococcus aureus [34]) | MIC (Staphylococcus aureus [35]) | MIC (Staphylococcus aureus [36]) | MIC (Staphylococcus aureus [37]) | MIC (Staphylococcus aureus [38]) | MIC (Staphylococcus aureus [39])
